Assay results as given in PMC6216040, “Repurposing of an old drug: In vitro and in vivo efficacies of buparvaquone against Echinococcus multilocularis” (International Journal for Parasitology: Drugs and Drug …, 2018).
Where two headings read alike, the source gives them in different places.

Tested on: E. multilocularis metacestodes
Test: PGI-assay: drug-induced damage on in vitro cultured metacestodes (Pathogen Box screening cascade and EC50)
Format: cell-based, Echinococcus multilocularis
Settings: for PGI release, % of the Tx-100 control, 5d / PGI release, % of the Tx-100 control, 12d / cytotoxicity at 10 µM: 10 µM, singlets; for cytotoxicity at 10 µM: Echinococcus multilocularis; for PGI release, % of Tx-100 control, average, 5d / PGI release, % of Tx-100 control, average, 12d: confirmatory screening at 10 µM in triplicates, values as % of Tx-100 control
[1] = 120 h, 5 days of incubation, read-out: PGI release, % of the Tx-100 control, 5d
[2] = 288 h, 12 days of incubation, read-out: PGI release, % of the Tx-100 control, 12d

SMILES	PGI release, % of the Tx-100 control, 5d (5 days of incubation) [%]	PGI release, % of the Tx-100 control, 12d (12 days of incubation) [%]	other results
O=C(CN1CCOCC1)Nc1ccc2ncnc(Nc3ccc(OCc4cccc(F)c4)c(Cl)c3)c2c1 [MMV688274]	-0.59	-0.94	
CC1=Nc2ccc(Cl)cc2C(O)(c2ccc(C)cc2)N1CCN1CCCCC1 (stereo not drawn) [MMV688279]	0.73	1.56	
CN1CCN(S(=O)(=O)c2ccc(-c3ccc4c(Nc5ncc(Cl)cn5)ccnc4c3)cc2)CC1 [MMV688283]	0.90	-1.47	
COc1ccc(-c2nnc3ccc(-c4cccc(C(C)C)c4)cn23)cc1OC [MMV688313]	-0.11	-3.88	
CC(=O)NC[C@H]1CN(c2ccc(-c3ccc(CNCc4cnn[nH]4)cc3)c(F)c2)C(=O)O1 [MMV688327, Radezolid, reference compound]			cytotoxicity at 10 µM [1]: -0.89%; cytotoxicity at 10 µM [2]: -1.52%
CC(=O)N1CCN(c2ccc(Oc3ccc(Cl)cc3O)cc2)CC1 [MMV688330]	-0.72	-5.52	
Nc1nc(N)c2c3c(sc2n1)CN(Cc1ccccc1)CC3 [MMV688345]	-0.50	-0.61	
COC(=O)c1ccc(F)cc1NS(=O)(=O)c1cccc(-c2cnn(Cc3ccccc3)c2)c1 [MMV688350]	-0.16	0.44	
O=C1[C@@H](Oc2ccccc2)[C@@H](c2ccc(Cl)cc2)N1CCn1cnc2c(NCc3ccccc3)ncnc21 [MMV688352]	2.57	3.05	
c1cc(C2=NCCN2)cc(-c2cc(-c3ccc(C4=NCCN4)cc3)no2)c1 [MMV688361]	-0.63	-1.49	
COc1cc(C2=NCCN2)cc2cc(-c3ccc(C4=NCCN4)cc3)oc12 [MMV688362]	0.03	0.64	
CC(C)(C)OC(=O)N1CCC(Cn2nc(-c3cnc4ccccc4c3)c3c(N)ncnc32)CC1 [MMV688364]	0.11	-0.13	
NCCN(C(=O)c1ccc(Cl)cc1Cl)c1ccc(OCc2ccc(Cl)cc2)cc1 [MMV688371]	45.68	52.47	PGI release, % of Tx-100 control, average, 5d (5 days of incubation): 3.16%; PGI release, % of Tx-100 control, average, 12d (12 days of incubation): 3.77%
O=C(Nc1ccc(F)c(-c2nc3ncc(-c4ccccc4)cc3[nH]2)c1)N1CCCC1 [MMV688372]	1.21	0.82	
COc1cc(C2=NCCN2)ccc1-c1cn(-c2cccc(C3=NCCN3)c2)nn1 [MMV688407]	1.48	1.29	
CC1=Nc2ccc(Cl)cc2C(c2ccccc2)N1CCNC(=O)CN(C)C (stereo not drawn) [MMV688410]	0.08	-1.09	
Nc1ncnc2c1c(-c1cnc3ccccc3c1)nn2CC1CCNCC1 [MMV688411]	-0.63	-1.19	
CO[C@@H]1CN(c2ccc(C#CC3(O)CN4CCC3CC4)c(Cc3ccccc3)n2)C[C@H]1O (stereo partly drawn) [MMV688415]	3.28	-0.74	
CC(C)(C)OC(=O)N1CCN(c2nccc(-c3ccc(-c4ccc(Cl)cc4)s3)n2)CC1 [MMV688416]	-0.30	-2.84	
CC(C)n1nc(-c2cc3c(Cl)cccc3[nH]2)c2c(N)ncnc21 [MMV688417]	-4.81	-2.43	
Cn1ccnc1CNCCS(=O)(=O)c1cccc(Nc2ccc(-c3cccc(F)c3)cn2)c1 [MMV688466]	-0.60	-2.11	
CCCCN(CCCC)c1c(C#N)cc(S(=O)(=O)Nc2ccccc2)cc1C#N [MMV688467]	17.50	35.72	PGI release, % of Tx-100 control, average, 5d (5 days of incubation): 4.92%; PGI release, % of Tx-100 control, average, 12d (12 days of incubation): 11.29%
Nc1ncnc2n[nH]c(Cc3cccc4ccccc34)c12 [MMV688469]	-0.61	-1.22	

SMILES	PGI release, % of the Tx-100 control, 5d (5 days of incubation) [%]	PGI release, % of the Tx-100 control, 12d (12 days of incubation) [%]	other results
CS(=O)(=O)N1CCC(CCn2nc(Cc3cccc4ccccc34)c3c(N)ncnc32)CC1 [MMV688470]	1.33	2.31	
CC(C(=O)Nc1ccc2oc(-c3ccncc3)nc2c1)c1ccccc1 (stereo not drawn) [MMV688471]	-1.25	5.56	
CC(Oc1cccc(Cl)c1)C(=O)Nc1ccc2oc(-c3ccncc3)nc2c1 (stereo not drawn) [MMV688472]	-0.36	0.44	
COc1cc(C2=NCCN2)ccc1-n1cc(-c2cccc(C3=NCCN3)c2)nn1 [MMV688474]	-0.50	-0.97	
CC(=O)NCC1CN(c2ccc(-c3ccc(CO)cc3)c(F)c2)C(=O)O1 (stereo not drawn) [MMV688508]	-0.03	-1.49	
O=C(OCc1ccccc1)N1CCC(c2cc(-c3ccncc3)c(-c3ccc(F)cc3)[nH]2)CC1 [MMV688509]	0.97	2.28	
N=C(N)c1ccc(-c2cc(-c3ccccc3)on2)cc1 [MMV688514]	-2.10	0.39	
CC(C)(C)C(=O)N(CCCCCCN1C[C@H](O)[C@@H](O)[C@H](O)[C@H]1CO)C1CCCCCC1 [MMV688543]	-1.12	-4.43	
COc1ccc(C2=NCCN2)cc1-c1cn(-c2cccc(C3=NCCN3)c2)nn1 [MMV688547]	-0.44	-1.41	
CC(C)(C)n1nc(-c2ccccc2)c2c(N)ncnc21 [MMV688548]	-2.51	1.17	
CCc1ccccc1-n1c(C)cn2c3c(=O)n(C(C(=O)OC)C(C)C)c(=O)n(C)c3nc12 (stereo not drawn) [MMV688550]	-2.01	-6.25	
Cc1nn(C(=O)Nc2cccc(C(F)(F)F)c2)c(C)c1Sc1ncccn1 [MMV688552]	0.35	1.89	
O=C(NCc1ccoc1)N1CCN(Cc2ccc3c(c2)OCO3)CC1 [MMV688553]	0.80	-2.91	
CNc1snc(C)c1C(=O)NCCOc1ccc(OC)cc1 [MMV688554]	-1.97	1.18	
O=C(NCc1ccco1)N1CCN(Cc2ccc(Cl)s2)CC1 [MMV688555]	1.40	3.17	
NCC(c1cccs1)S(=O)(=O)c1ccccc1 (stereo not drawn) [MMV688557]	0.26	-2.41	
CN1CCC(c2cc(-c3ccncc3)c(-c3ccc(F)cc3)[nH]2)CC1 [MMV688703]	0.17	-2.29	
Cc1cc2nc(NC(=O)C(C)(C)C)nc(Cl)c2n1Cc1ccc(Cl)cc1 [MMV688704]	5.09	-0.53	
CON=C(C(=O)OC)c1ccccc1CON=C(C)c1cccc(C(F)(F)F)c1 [MMV688754, Trifloxystrobin]			cytotoxicity at 10 µM [1]: -1.92%; cytotoxicity at 10 µM [2]: -5.74%
O=[N+]([O-])c1cn2c(n1)OC[C@@H](OCc1ccc(OC(F)(F)F)cc1)C2 [MMV688755, Pretomanid, reference compound]			cytotoxicity at 10 µM [1]: -0.93%; cytotoxicity at 10 µM [2]: -1.01%
CC(=O)NC[C@H]1CN(c2ccc(N3CCSCC3)c(F)c2)C(=O)O1 [MMV688756, Sutezolid, reference compound]			cytotoxicity at 10 µM [1]: -3.45%; cytotoxicity at 10 µM [2]: -0.37%
CS(=O)(=O)c1ccc(C(=O)N(CC2CCCO2)c2nc3ccccc3s2)cc1[N+](=O)[O-] (stereo not drawn) [MMV688761]	1.26	0.42	
c1ccc(-c2[nH]c3ccccc3c2C(c2ccccn2)N2CCCC2)cc1 (stereo not drawn) [MMV688762]	0.82	0.77	
